Test results reported in patent US9265922B2, “System and method for improving outcome of cerebral ischemia” (ASTUCE, INC., priority 2012, dated 2016).
“Also recorded” adds a separate entry of the source.

What was measured:
[1] = test system: humans (normal volunteers); experiment: Tolerability of intranasal nitric oxide in normal volunteers; type: in vivo, human; settings: high concentration, delivered intra-nasally and without inhalation
Description: While nitric oxide may be given intranasally and without inhalation into the lungs to intubated, comatose individuals the tolerability of intranasal nitric oxide in awake humans has not previously been investigated. The inventors have tested the effect of nitric oxide in humans (normal volunteers) during intranasal delivery. […] Therefore it can easily be tolerated by awake, non-intubated patients.

[2] = test system: patients with cerebral ischemia; experiment: CT perfusion scanning in intubated patients with cerebral ischemia before and after intranasal nitric oxide; type: in vivo, human
[3] = test system: carotid artery occlusion model; experiment: Carotid artery occlusion model, Speckle laser Doppler, intranasal nitric oxide; type: in vivo, rodents
Protocol: (§1) In intubated rodents, the inventors have shown that cerebral blood flow increases by 100% within 60 minutes of intranasal nitric oxide delivery.
Increase in cerebral blood flow is attributable to focal intranasal or intra-oral effect of nitric oxide rather than to systemic absorption of the gas. […] The effect on cerebral blood flow during intranasal delivery of nitric oxide with concomitant air inhalation into the lungs is therefore a focal effect on intranasal and intracranial vasculature attributable specifically to nitric oxide. […] In a non-intubated patient, nitric oxide inhalation can be prevented by occluding the nasal cavity anterior or posterior to the site of gas delivery. This is achieved by means of an anterior occlusion device such a rigid member, an expandable member, a compressible member, a sponge, a porous member, a plug, a balloon, foam and/or combinations of the foregoing, which prevent inhalation through the nostrils while maintaining a high concentration of nitric oxide in the nasal cavity. A non-intubated patient may be allowed to inhale air into the lungs during nitric oxide delivery into the nasal cavity by an optional central lumen with the distal orifice beyond the sites of nasal gas delivery and occlusion device.

[4] = test system: intubated rodents; experiment: Cerebral blood flow by cortical laser Doppler during intranasal nitric oxide in intubated rodents; type: in vivo
Protocol: as §1

[N]=O [nitric oxide]
tolerability of gas treatment [1]: tolerated
increase in perfusion on L (Cerebral Blood Flow, ACA Watershed) ([2]; Post Rx versus Pre Rx, left ischemic hemisphere): 67% increase in
Mean Transit Time, Changes in ACA Watershed ([2]; Post Rx, Pre Rx 4 sec delay): Normalization
Cerebral Blood Flow, Changes in ACA Watershed ([2]; Post Rx, Pre Rx 37% lower on ischemic side): Normalization,
cerebral perfusion by CT perfusion scanning ([2]; intubated patients with cerebral ischemia, during treatment with intranasal nitric oxide (FIGS. 10, 11)): improvement in cerebral perfusion; also recorded: augmentation of cerebral perfusion and normalization of regional perfusion abnormalities
perfusion in the ischemic hemisphere ([3]; both during the carotid occlusion and following ligature release (FIG. 9)): improved
cerebral ischemia (FIG. 9, Speckle laser Doppler tracing) ([3]; intubated rodents given intranasal nitric oxide): reduction of cerebral ischemia
cerebral blood flow (FIG. 8, cortical laser Doppler) ([4]; during intranasal administration): doubling of cerebral blood flow
cerebral blood flow increase ([4]; within 60 minutes of intranasal non-inhaled nitric oxide delivery): 100%
